Test results from the supplement of paper PMC5752671.

How the values were obtained:
Assay in all cases: IC50 (cell viability) (log10 M)
Details in all cases: 4 days
SKM1 = tested on: SKM1
Procedure, shortened: (§1)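 Fourteen leukemia cell lines were plated on extracellular-matrix-coated 384-well plates. Drugs were added robotically the next day at eight concentrations spanning 4–5 logs within 10^–12–10^–4 M, tailored per drug, in duplicate. Viability was read with CellTiter-Glo after 4 days. IC50 is the concentration where a fitted four-parameter curve crosses 50% viability, in log10 M; where that is not reached, the highest tested concentration is entered.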

HL60 = tested on: HL60
Procedure, shortened: as §1

OCI-AML2 = tested on: OCI-AML2
Procedure, shortened: as §1

KASUMI1 = tested on: KASUMI1
Procedure, shortened: as §1

EOL-1 = tested on: EOL-1
Procedure, shortened: as §1

MV4.11 = tested on: MV4.11
Procedure, shortened: as §1

U937 = tested on: U937
Procedure, shortened: as §1

KG1 = tested on: KG1
Procedure, shortened: as §1

MOLM/13 = tested on: MOLM/13
Procedure, shortened: as §1

MOLM/16 = tested on: MOLM/16
Procedure, shortened: as §1

Row | IC50 (log10 M) (SKM1) | IC50 (log10 M) (HL60) | IC50 (log10 M) (OCI-AML2) | IC50 (log10 M) (MV4.11) | IC50 (log10 M) (U937) | IC50 (log10 M) (MOLM/13) | IC50 (log10 M) (MOLM/16) | Compound | IC50 (log10 M) (KASUMI1) | IC50 (log10 M) (EOL-1) | IC50 (log10 M) (KG1)
1 | -5.97 | -5.94 | -6.33 | -6.48 | -6.13 | -5.96 | -6.51 | O=C(CCCCCCC(=O)Nc1ccccc1)NO [Vorinostat] | -6.07 | -6.51 | -6.01
2 | < -8.34 | < -8.34 | < -8.34 | -8.32 | < -8.34 | < -8.34 | -8.13 | COCC[n+]1c2c(n(Cc3cnccn3)c1C)C(=O)c1ccccc1C2=O [YM-155] | < -8.34 | < -8.34 | -7.71
3 | > -5 | -5.46 | > -5 | > -5 | -5.8 | > -5 | -5.92 | FC(F)c1nc2ccccc2n1-c1nc(N2CCOCC2)nc(N2CCOCC2)n1 [ZSTK-474] | -6.2 | -6.23 | > -5
